ChEMBL document CHEMBL1201862, “PubChem BioAssay data set” (2004)
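In this assay, cells in 96-well plates receive the compound at five concentrations for 48 hours. Endpoints are linearly interpolated between the surrounding concentrations. GI50: concentration for 50% inhibition of growth.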 Active and inactive are the calls of the source. Cut-off read from the data, not from the text of the source: active = GI50 up to about 1.1 µM and inactive = higher.

Tests used:
Assay in all cases: NCI tumour cell line growth inhibition, 48 h
[1] = test system: A498
[2] = test system: A549
[3] = test system: ACHN
[4] = test system: BT-549
[5] = test system: CAKI-1
[6] = test system: CCRF-CEM
[7] = test system: COLO 205
[8] = test system: DU-145
[9] = test system: EKVX
[10] = test system: HCC 2998
[11] = test system: HCT-116
[12] = test system: HCT-15
[13] = test system: HL-60
[14] = test system: HOP-62
[15] = test system: HOP-92
[16] = test system: HT-29
[17] = test system: Hs-578T
[18] = test system: IGROV-1
[19] = test system: K562
[20] = test system: KM12
[21] = test system: LOX IMVI
[22] = test system: M14
[23] = test system: MCF7
[24] = test system: MDA-MB-231
[25] = test system: MDA-MB-435
[26] = test system: MDA-N
[27] = test system: MOLT-4
[28] = test system: Malme-3M
[29] = test system: NCI-H226
[30] = test system: NCI-H23
[31] = test system: NCI-H460
[32] = test system: NCI-H522
[33] = test system: NCI/ADR-RES
[34] = test system: OVCAR-3
[35] = test system: OVCAR-4
[36] = test system: OVCAR-5
[37] = test system: OVCAR-8
[38] = test system: PC-3
[39] = test system: RPMI-8226
[40] = test system: SF-268
[41] = test system: SF-295
[42] = test system: SF-539
[43] = test system: SK-MEL-28
[44] = test system: SK-MEL-2
[45] = test system: SK-MEL-5
[46] = test system: SK-OV-3
[47] = test system: SN12C
[48] = test system: SNB-19
[49] = test system: SNB-75
[50] = test system: SR
[51] = test system: SW-620
[52] = test system: T47D
[53] = test system: TK-10
[54] = test system: U-251
[55] = test system: UACC-257
[56] = test system: UACC-62
[57] = test system: UO-31
[58] = test system: 786-0
[59] = test system: RXF 393

COc1ccc(C(=O)c2c(-c3ccccc3NC(=O)C(F)(F)F)[nH]c3ccccc23)cc1
GI50 [1]: 2.17 µM (inactive) | GI50 [2]: 5.66 µM (inactive) | GI50 [3]: 3.16 µM (inactive) | GI50 [4]: 14.5 µM (inactive) | GI50 [5]: 6.41 µM (inactive) | GI50 [6]: 2.46 µM (inactive) | GI50 [7]: 4.05 µM (inactive) | GI50 [8]: 5.18 µM (inactive) | GI50 [9]: 11.8 µM (inactive) | GI50 [10]: 3.4 µM (inactive) | GI50 [11]: 12.2 µM (inactive) | GI50 [12]: 4.98 µM | GI50 [13]: 2.42 µM (inactive) | GI50 [14]: 9.16 µM (inactive) | GI50 [15]: 12.4 µM (inactive) | GI50 [16]: 3.97 µM (inactive) | GI50 [17]: 18.1 µM (inactive) | GI50 [18]: 10.6 µM (inactive) | GI50 [19]: 5.65 µM (inactive) | GI50 [20]: 3.88 µM (inactive) | GI50 [21]: 4.35 µM (inactive) | GI50 [22]: 14.3 µM (inactive) | GI50 [23]: 1.74 µM (inactive) | GI50 [24]: 7.28 µM (inactive) | GI50 [25]: 9.89 µM (inactive) | GI50 [26]: 15.3 µM (inactive) | GI50 [27]: 2.93 µM (inactive) | GI50 [28]: 14.4 µM (inactive) | GI50 [29]: 14.7 µM (inactive) | GI50 [30]: 11.7 µM (inactive) | GI50 [31]: 4.26 µM (inactive) | GI50 [32]: 7.33 µM (inactive) | GI50 [33]: 8.28 µM (inactive) | GI50 [34]: 3.83 µM (inactive) | GI50 [35]: 4.59 µM (inactive) | GI50 [36]: 12.5 µM (inactive) | GI50 [37]: 6.19 µM (inactive) | GI50 [38]: 5.92 µM (inactive) | GI50 [39]: 4.8 µM (inactive) | GI50 [40]: 12.8 µM (inactive) | GI50 [41]: 12.1 µM (inactive) | GI50 [42]: 1.94 µM (inactive) | GI50 [43]: 13.6 µM (inactive) | GI50 [44]: 4.02 µM (inactive) | GI50 [45]: 8.95 µM (inactive) | GI50 [46]: 14.6 µM (inactive) | GI50 [47]: 14.6 µM (inactive) | GI50 [48]: 6.37 µM (inactive) | GI50 [49]: 2.47 µM (inactive) | GI50 [50]: 2.81 µM (inactive) | GI50 [51]: 4.06 µM (inactive) | GI50 [52]: 1.47 µM (inactive) | GI50 [53]: 11.6 µM (inactive) | GI50 [54]: 2.56 µM (inactive) | GI50 [55]: 15.6 µM (inactive) | GI50 [56]: 12.1 µM (inactive) | GI50 [57]: 5.05 µM (inactive)

Cc1cn(C2CC(n3cc(Cn4cc(Br)c(=O)[nH]c4=O)nn3)C(CO)O2)c(=O)[nH]c1=O (stereo not given)
GI50 [58]: 93.1 µM (inactive) | GI50 [1]: > 100 µM (inactive) | GI50 [2]: > 100 µM (inactive) | GI50 [3]: > 100 µM (inactive) | GI50 [4]: > 100 µM (inactive) | GI50 [5]: > 100 µM (inactive) | GI50 [6]: 0.668 µM (active) | GI50 [7]: > 100 µM (inactive) | GI50 [8]: > 100 µM (inactive) | GI50 [9]: > 100 µM (inactive) | GI50 [10]: > 100 µM (inactive) | GI50 [11]: 52.5 µM (inactive) | GI50 [12]: > 100 µM | GI50 [13]: 0.0395 µM (active) | GI50 [14]: > 100 µM (inactive) | GI50 [15]: 20.4 µM (inactive) | GI50 [17]: > 100 µM (inactive) | GI50 [18]: 80 µM (inactive) | GI50 [20]: 47.3 µM (inactive) | GI50 [21]: > 100 µM (inactive) | GI50 [22]: > 100 µM (inactive) | GI50 [23]: > 100 µM (inactive) | GI50 [24]: > 100 µM (inactive) | GI50 [25]: 42.1 µM (inactive) | GI50 [26]: 62.2 µM (inactive) | GI50 [27]: 30.7 µM (inactive) | GI50 [28]: > 100 µM (inactive) | GI50 [30]: > 100 µM (inactive) | GI50 [33]: 68.2 µM (inactive) | GI50 [34]: > 100 µM (inactive) | GI50 [35]: > 100 µM (inactive) | GI50 [36]: > 100 µM (inactive) | GI50 [37]: 13 µM (inactive) | GI50 [38]: > 100 µM (inactive) | GI50 [39]: 52.6 µM (inactive) | GI50 [59]: > 100 µM (inactive) | GI50 [40]: > 100 µM (inactive) | GI50 [41]: 41.9 µM (inactive) | GI50 [42]: > 100 µM (inactive) | GI50 [43]: > 100 µM (inactive) | GI50 [44]: > 100 µM (inactive) | GI50 [45]: 89.5 µM (inactive) | GI50 [46]: 63.2 µM (inactive) | GI50 [47]: > 100 µM (inactive) | GI50 [48]: 37.8 µM (inactive) | GI50 [49]: 60.5 µM (inactive) | GI50 [51]: > 100 µM (inactive) | GI50 [52]: > 100 µM (inactive) | GI50 [53]: > 100 µM (inactive) | GI50 [54]: 39.1 µM (inactive) | GI50 [55]: > 100 µM (inactive) | GI50 [56]: > 100 µM (inactive) | GI50 [57]: 88.1 µM (inactive)
